Test results published in patent US10829501B2 (BRISTOL-MYERS SQUIBB COMPANY, priority 2016, dated 2020).
Where a name gives a salt, the structure may show the parent alone.

Molecular target: ROCK2 (Homo sapiens, UniProt O75116)
Test: ROCK2 kinase inhibition assay (LABCHIP 3000 Reader, FITC peptide substrate);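 further: rho kinase reaction read by separating phosphorylated from unphosphorylated peptide on chip, with inhibition of kinase activity computed per concentration across a dose-response series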
Settings: not given

ROCK2, sequence (O75116 whole entry, species assumed): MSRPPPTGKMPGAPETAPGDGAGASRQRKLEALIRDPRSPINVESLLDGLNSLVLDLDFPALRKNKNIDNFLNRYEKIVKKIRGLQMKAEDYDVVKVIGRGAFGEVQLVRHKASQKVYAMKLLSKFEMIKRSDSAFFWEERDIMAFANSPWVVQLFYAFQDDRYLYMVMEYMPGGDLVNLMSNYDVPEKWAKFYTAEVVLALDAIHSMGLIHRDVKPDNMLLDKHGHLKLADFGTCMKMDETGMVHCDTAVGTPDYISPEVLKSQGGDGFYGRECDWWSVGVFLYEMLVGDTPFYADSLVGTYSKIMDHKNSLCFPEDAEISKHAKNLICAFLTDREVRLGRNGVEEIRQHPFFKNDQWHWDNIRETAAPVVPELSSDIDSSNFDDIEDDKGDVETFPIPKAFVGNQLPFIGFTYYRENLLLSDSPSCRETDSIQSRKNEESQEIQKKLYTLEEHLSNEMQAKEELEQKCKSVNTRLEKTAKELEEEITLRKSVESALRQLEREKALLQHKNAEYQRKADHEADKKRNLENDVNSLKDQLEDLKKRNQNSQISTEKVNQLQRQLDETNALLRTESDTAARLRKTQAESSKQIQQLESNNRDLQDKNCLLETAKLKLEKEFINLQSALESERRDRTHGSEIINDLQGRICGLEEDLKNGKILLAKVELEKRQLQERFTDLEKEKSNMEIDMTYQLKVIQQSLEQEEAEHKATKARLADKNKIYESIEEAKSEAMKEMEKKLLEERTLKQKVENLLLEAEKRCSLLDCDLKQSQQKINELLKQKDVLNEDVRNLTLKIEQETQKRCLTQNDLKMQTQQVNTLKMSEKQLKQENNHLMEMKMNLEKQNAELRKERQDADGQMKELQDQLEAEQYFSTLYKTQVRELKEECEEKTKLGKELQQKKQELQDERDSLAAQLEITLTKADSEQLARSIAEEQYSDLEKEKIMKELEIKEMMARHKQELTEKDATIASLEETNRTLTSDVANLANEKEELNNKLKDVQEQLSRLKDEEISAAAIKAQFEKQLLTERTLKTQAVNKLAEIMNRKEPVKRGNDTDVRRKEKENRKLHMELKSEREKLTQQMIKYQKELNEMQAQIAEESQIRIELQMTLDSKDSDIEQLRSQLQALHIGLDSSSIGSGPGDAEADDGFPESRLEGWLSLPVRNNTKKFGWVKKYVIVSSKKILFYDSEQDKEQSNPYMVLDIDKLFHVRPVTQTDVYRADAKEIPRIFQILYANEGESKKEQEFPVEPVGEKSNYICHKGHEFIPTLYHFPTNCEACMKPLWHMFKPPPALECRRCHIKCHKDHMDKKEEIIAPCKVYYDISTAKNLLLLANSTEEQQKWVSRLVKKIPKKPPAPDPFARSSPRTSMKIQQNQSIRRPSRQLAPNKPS

Compound	IC50
CC(C)(O)COc1ccc2c(C(=O)N[C@H]3CC4(C3)C[C@H](Oc3ncccc3C(N)=O)C4)cnn2c1N1CCCCC1=O (atropisomer, axis not shown; (aR)) [Example 69, N-((aR)-6-((3-carbamoylpyridin-2-yl)oxy)spiro[3.3]heptan-2-yl)-6-(2-hydroxy-2-methylpropoxy)-7-(2-oxopiperidin-1-yl)pyrazolo[1,5-a]pyridine-3-carboxamide, trifluoroacetate]	0.05 to 0.25 µM
[H][C@]1(Oc2cc(-c3cnn(C)c3)ccc2C(N)=O)C[C@@]2(C[C@H](NC(=O)c3cnn4cc(OCC(C)(C)O)ccc34)C2)C1 (single isomer, unassigned) [Example 276]	0.005 to 0.05 µM
Cc1c(C(=O)NC2CC3(C2)CC(Oc2ccccc2C(N)=O)C3)cnn1-c1ccccc1 (stereo not shown) [Example 1, N-(6-(2-carbamoylphenoxy)spiro[3.3]heptan-2-yl)-5-methyl-1-phenyl-1H-pyrazole-4-carboxamide]	0.05 to 0.25 µM
Cn1nc(C(=O)NC2CC3(C2)CC(Oc2ccccc2C(N)=O)C3)c2ccccc21 (stereo not shown) [Example 2, N-(6-(2-carbamoylphenoxy)spiro[3.3]heptan-2-yl)-1-methyl-1H-indazole-3-carboxamide]	0.05 to 0.25 µM
CC(C)(O)COc1ccc2c(C(=O)NC3CC4(C3)CC(Oc3ccccc3C(N)=O)C4)cnn2c1 (stereo not shown) [Example 3, N-(6-(2-carbamoylphenoxy)spiro[3.3]heptan-2-yl)-6-(2-hydroxy-2-methylpropoxy)pyrazolo[1,5-a]pyridine-3-carboxamide]	0.005 to 0.05 µM
NC(=O)c1ccccc1OC1CC2(CC(NC(=O)c3cnn4cc(OC5CCOC5)ccc34)C2)C1 (stereo not shown) [Example 4, N-(6-(2-carbamoylphenoxy)spiro[3.3]heptan-2-yl)-6-((tetrahydrofuran-3-yl)oxy)pyrazolo[1,5-a]pyridine-3-carboxamide]	0.005 to 0.05 µM
COc1cc(C(=O)NC2CC3(C2)CC(Oc2ccccc2C(N)=O)C3)ccc1-c1cn[nH]c1 (stereo not shown) [Example 5, N-(6-(2-carbamoylphenoxy)spiro[3.3]heptan-2-yl)-3-methoxy-4-(1H-pyrazol-4-yl)benzamide]	0.05 to 0.25 µM
CC(C)(O)COc1ccc2c(C(=O)NC3CC4(C3)CC(Oc3ncccc3C(N)=O)C4)cnn2c1 (stereo not shown) [Example 6, N-(6-((3-carbamoylpyridin-2-yl)oxy)spiro[3.3]heptan-2-yl)-6-(2-hydroxy-2-methylpropoxy)pyrazolo[1,5-a]pyridine-3-carboxamide]	< 0.005 µM
CC(C)(O)COc1ccc2c(C(=O)NC3CC4(C3)CC(Oc3nccnc3C(N)=O)C4)cnn2c1 (stereo not shown) [Example 7, N-(6-((3-carbamoylpyrazin-2-yl)oxy)spiro[3.3]heptan-2-yl)-6-(2-hydroxy-2-methylpropoxy)pyrazolo[1,5-a]pyridine-3-carboxamide]	0.25 to 2.5 µM
CC(C)(O)COc1ccc2c(C(=O)NC3CC4(C3)CC(Oc3ncncc3C(N)=O)C4)cnn2c1 (stereo not shown) [Example 8, N-(6-((5-carbamoylpyrimidin-4-yl)oxy)spiro[3.3]heptan-2-yl)-6-(2-hydroxy-2-methylpropoxy)pyrazolo[1,5-a]pyridine-3-carboxamide]	0.05 to 0.25 µM
NC(=O)c1cccnc1OC1CC2(CC(NC(=O)c3cnn4cc(OC(CF)CF)ccc34)C2)C1 (stereo not shown) [Example 9, N-(6-((3-carbamoylpyridin-2-yl)oxy)spiro[3.3]heptan-2-yl)-6-((1,3-difluoropropan-2-yl)oxy)pyrazolo[1,5-a]pyridine-3-carboxamide]	0.005 to 0.05 µM
NC(=O)c1cccnc1OC1CC2(CC(NC(=O)c3cnn4cc(OCCC(F)(F)F)ccc34)C2)C1 (stereo not shown) [Example 10, N-(6-((3-carbamoylpyridin-2-yl)oxy)spiro[3.3]heptan-2-yl)-6-(3,3,3-trifluoropropoxy)pyrazolo[1,5-a]pyridine-3-carboxamide]	0.005 to 0.05 µM
NC(=O)c1cccnc1OC1CC2(CC(NC(=O)c3cnn4cc(OC5CCOCC5)ccc34)C2)C1 (stereo not shown) [Example 11, N-(6-((3-carbamoylpyridin-2-yl)oxy)spiro[3.3]heptan-2-yl)-6-((tetrahydro-2H-pyran-4-yl)oxy)pyrazolo[1,5-a]pyridine-3-carboxamide]	0.005 to 0.05 µM
NC(=O)c1cccnc1OC1CC2(CC(NC(=O)N3CCc4ccccc43)C2)C1 (stereo not shown) [Example 12, N-(6-((3-carbamoylpyridin-2-yl)oxy)spiro[3.3]heptan-2-yl)indoline-1-carboxamide]	0.05 to 0.25 µM
N#Cc1ccc2c(c1)CN(C(=O)NC1CC3(C1)CC(Oc1ncccc1C(N)=O)C3)C2 (stereo not shown) [Example 13, N-(6-((3-carbamoylpyridin-2-yl)oxy)spiro[3.3]heptan-2-yl)-5-cyanoisoindoline-2-carboxamide]	0.05 to 0.25 µM
NC(=O)c1ccccc1OC1CC2(CC(NC(=O)OCc3ccccc3)C2)C1 [Example 14, benzyl ((aR)-6-(2-carbamoylphenoxy)spiro[3.3]heptan-2-yl)carbamate]	0.25 to 2.5 µM
[H][C@]1(Oc2ccccc2C(N)=O)C[C@@]2(C[C@H](NC(=O)c3cnn4c(C5CC5)c(OCC(C)(C)O)ccc34)C2)C1 (stereo partly drawn) [Example 15, N-((aR)-6-(2-carbamoylphenoxy)spiro[3.3]heptan-2-yl)-7-cyclopropyl-6-(2-hydroxy-2-methylpropoxy)pyrazolo[1,5-a]pyridine-3-carboxamide]	< 0.005 µM
[H][C@]1(Oc2ccccc2C(N)=O)C[C@@]2(C[C@H](NC(=O)c3cnn4cc(OCC(C)(C)O)ccc34)C2)C1 (stereo partly drawn) [Example 16, N-((aR)-6-(2-carbamoylphenoxy)spiro[3.3]heptan-2-yl)-6-(2-hydroxy-2-methylpropoxy)pyrazolo[1,5-a]pyridine-3-carboxamide]	< 0.005 µM
COc1ccc2c(c1)CCN2C(=O)NC1CC2(C1)CC(Oc1ncccc1C(N)=O)C2 [Example 17, N-((aR)-6-((3-carbamoylpyridin-2-yl)oxy)spiro[3.3]heptan-2-yl)-5-methoxyindoline-1-carboxamide]	0.05 to 0.25 µM
NC(=O)c1ccccc1O[C@H]1CC2(C[C@H](NC(=O)c3cnc4cc(OCCC(F)(F)F)ccn34)C2)C1 (stereo partly drawn) [Example 18, N-[(aR)-6-(2-carbamoylphenoxy)spiro[3.3]heptan-2-yl]-7-(3,3,3-trifluoropropoxy)imidazo [1,2-a]pyridine-3-carboxamdie]	< 0.005 µM
CC(C)(O)COc1ccc2c(C(=O)N[C@H]3CC4(C3)C[C@H](Oc3ccccc3C(N)=O)C4)cnn2c1CCC(F)(F)F (stereo partly drawn) [Example 19, N-[(aR)-6-(2-carbamoylphenoxy)spiro[3.3]heptan-2-yl]-6-(2-hydroxy-2-methylpropoxy)-7-(3,3,3-trifluoropropyl)pyrazolo [1,5-a]pyridine-3-carboxamide]	< 0.005 µM
NC(=O)c1ccccc1O[C@H]1CC2(C[C@H](NC(=O)c3cnn4ccc(OCCN5CCOCC5)cc34)C2)C1 (stereo partly drawn) [Example 20, N-[(aR)-6-(2-carbamoylphenoxy)spiro[3.3]heptan-2-yl]-5-[2-(morpholin-4-yl)ethoxy]pyrazolo[1,5-a]pyridine-3-carboxamide]	0.005 to 0.05 µM
NC(=O)c1ccccc1O[C@H]1CC2(C[C@H](NC(=O)c3cnn4cc(OCCN5CCCC5)ccc34)C2)C1 (stereo partly drawn) [Example 21, N-[(aR)-6-(2-carbamoylphenoxy)spiro[3.3]heptan-2-yl]-6-[2-(pyrrolidin-1-yl)ethoxy]pyrazolo[1,5-a]pyridine-3-carboxamide]	0.005 to 0.05 µM
NC(=O)c1ccccc1O[C@H]1CC2(C[C@H](NC(=O)c3cnn4cc(OCC(F)F)ccc34)C2)C1 (stereo partly drawn) [Example 22, N-[(aR)-6-(2-carbamoylphenoxy)spiro[3.3]heptan-2-yl]-6-(2,2-difluoroethoxy)pyrazolo [1,5-a]pyridine-3-carboxamide]	0.005 to 0.05 µM
NC(=O)c1ccccc1O[C@H]1CC2(C[C@H](NC(=O)c3cnn4cc(N5CCC(F)(F)C5)ccc34)C2)C1 (stereo partly drawn) [Example 23, N-[(aR)-6-(2-carbamoylphenoxy)spiro[3.3]heptan-2-yl]-6-(3,3-difluoropyrrolidin-1-yl)pyrazolo[1,5-a]pyridine-3-carboxamide]	< 0.005 µM
NC(=O)c1ccccc1O[C@H]1CC2(C[C@H](NC(=O)c3cnn4cc(OC(F)F)ccc34)C2)C1 (stereo partly drawn) [Example 24, N-[(aR)-6-(2-carbamoylphenoxy)spiro[3.3]heptan-2-yl]-6-(difluoromethoxy)pyrazolo [1,5-a]pyridine-3-carboxamide]	0.005 to 0.05 µM
NC(=O)c1ccccc1O[C@H]1CC2(C[C@H](NC(=O)c3cnc4cc(N5CCC(F)(F)C5)ccn34)C2)C1 (stereo partly drawn) [Example 25, N-[(aR)-6-(2-carbamoylphenoxy)spiro[3.3]heptan-2-yl)-7-(3,3-difluoropyrrolidin-1-yl)imidazo[1,2-a]pyridine-3-carboxamide]	< 0.005 µM
NC(=O)c1ccccc1O[C@H]1CC2(C[C@H](NC(=O)c3cnc4cc(OCCN5CCCC5)ccn34)C2)C1 (stereo partly drawn) [Example 26, N-((aR)-6-(2-carbamoylphenoxy)spiro[3.3]heptan-2-yl)-7-(2-(pyrrolidin-1-yl)ethoxy)imidazo[1,2-a]pyridine-3-carboxamdie]	0.005 to 0.05 µM
COC(=O)N1CC(Oc2ccc3c(C(=O)N[C@H]4CC5(C4)C[C@H](Oc4ccccc4C(N)=O)C5)cnn3c2)C1 (stereo partly drawn) [Example 27, methyl 3-((3-(((aR)-6-(2-carbamoylphenoxy)spiro[3.3]heptan-2-yl)carbamoyl)pyrazolo[1,5-a]pyridin-6-yl)oxy)azetidine-1-carboxylate]	0.005 to 0.05 µM

Same assay, conditions: read-out: ROCK2 Activity (ROCK2 IC50); 5 μM ATP, 1.5 μM peptide substrate, pH 7.5

Compound	IC50
2-(((aR)-6-(1- (pyridin-2-yl)-5- (trifluoromethyl)- 1H-pyrazole-4- carboxamido) spiro[3.3]heptan-2- yl)oxy) nicotinamide [Example 129]	0.25 to 2.5 µM
2-(((aR)-6-(3-(2- methylthiazol-4- yl)benzamido)spiro [3.3]heptan-2- yl)oxy)nicotinamide, trifluoroacetate [Example 133]	0.005 to 0.05 µM
2-(((aR)-6-(3-cyano- 5-(1-methyl- 1H-pyrazol-4- yl)benzamido) spiro[3.3]heptan-2- yl)oxy)nicotinamide [Example 195]	< 0.005 µM
2-((aR)-6- (1-methyl-3- (trifluoromethyl)- 1H-pyrazole- 5-carboxamido) spiro[3.3]heptan- 2-yl)oxy) nicotinamide, trifluoroacetate [Example 86]	0.05 to 0.25 µM
2-((aR)-6- (1-phenyl-1H- pyrazole-4- carboxamido) spiro[3.3]- heptan-2-yl)oxy) nicotinamide, trifluoroacetate [Example 73]	0.005 to 0.05 µM
